Holding throughout (test): inhibition of tumour cell growth, NCI panel, 48 h
For experiment [1], the system named is OVCAR-5.
Experiment [2] deals with ACHN.
Experiment [3] has as its system SN12C.
Experiment [4] concerns OVCAR-3.
In experiment [5] the test system is MDA-MB-435.
The test system of experiment [6] is UO-31.
The subject of experiment [7] is SNB-19.
Experiment [8] has as its system SW-620.
In experiment [9] the test system is IGROV-1.
Experiment [10] has as its system UACC-62.
For experiment [11], the system named is CAKI-1.
The test system of experiment [12] is UACC-257.
Experiment [13] has as its system TK-10.
Experiment [14] deals with SF-295.
Experiment [15] deals with COLO 205.
Experiment [16] deals with SK-MEL-5.
Experiment [17] relates to RPMI-8226.
The subject of experiment [18] is LOX IMVI.
For experiment [19], the system named is HCT-116.
Experiment [20] has as its system RXF 393.

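Cells were grown in 96-well plates and exposed to each compound for 48 hours at five concentrations; endpoints were interpolated linearly between bracketing concentrations, or set to the highest concentration if not reached. GI50 marks 50% less growth.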 The source made the active and inactive calls. Cut-off read from the data, not from the text of the source: active = GI50 up to about 1.1 µM and inactive = higher. Where only a bound is given, the exact number is not on record here.

As for `O=C(/C=C/c1cccs1)c1ccc(C(=O)/C=C/c2cccs2)cc1`, the GI50 in experiment [1], in experiment [2], in [3], in experiment [4], in experiment [5] and in [6] was > 100 µM (inactive) each time. Further, the GI50 in experiment [7], in experiment [8], in experiment [9], in [10], in experiment [11] and in experiment [12] was > 100 µM (inactive) in each case. Further, the GI50 in experiment [13], in [14] and in [15] was > 100 µM (inactive) throughout.
Consider `CC(=O)On1c(-c2ccccc2-c2nc3ccccc3n2OC(C)=O)nc2ccccc21`, for which the GI50 in experiment [1] is > 100 µM (inactive); in experiment [2], 61.8 µM (inactive); in experiment [16], 3.4 µM (inactive); in experiment [3], 39.6 µM (inactive); in [4], 24.3 µM (inactive); in [5], 16.2 µM (inactive). For the same molecule, the GI50 in experiment [6] was 74.6 µM (inactive); in experiment [7] it was 60.5 µM (inactive); in [8], 34.4 µM (inactive); in experiment [9], 22.1 µM (inactive); in experiment [10], 21 µM (inactive); in [11], > 100 µM (inactive). Also, the GI50 is 12.5 µM (inactive) in experiment [12]; 68.1 µM (inactive) in [13]; 44.7 µM (inactive) in experiment [14]; 16.7 µM (inactive) in experiment [15]; 7.82 µM (inactive) in [17]; 18.5 µM (inactive) in [18]. In [19], the GI50 is 25 µM (inactive).
With `Clc1ccc(C(Cc2ccccc2)c2c(Cl)nc(N3CCNCC3)nc2Cl)cc1` (stereo not given), the GI50 is 17.7 µM (inactive) in experiment [1]; 13.6 µM (inactive) in experiment [2]; 14.7 µM (inactive) in experiment [16]; 15.2 µM (inactive) in [3]; 14.3 µM (inactive) in experiment [4]; 16.6 µM (inactive) in experiment [5]. In addition, the GI50 is 11.3 µM (inactive) in experiment [6]; 15.3 µM (inactive) in experiment [7]; 14.5 µM (inactive) in experiment [8]; 11.9 µM (inactive) in [9]; 21 µM (inactive) in experiment [10]; 5.13 µM (inactive) in experiment [11]. For the same molecule, the GI50 in experiment [12] was 15.7 µM (inactive); in experiment [13], 17.5 µM (inactive); in experiment [14], 19 µM (inactive); in [15], 1.73 µM (inactive); in experiment [17], 13.7 µM (inactive); in experiment [18] it was 3.46 µM (inactive). Moreover, the GI50 in [19] was 8.38 µM (inactive).
With `COC(=O)CCc1ccc2c(c1)[C@H](C(=O)OC)[C@@H](c1ccc(O)cc1)O2`, the GI50 in [1] is > 100 µM (inactive); in experiment [2], > 100 µM (inactive); in [16] it was 40.1 µM (inactive); in experiment [3], > 100 µM (inactive); in experiment [4], > 100 µM (inactive); in experiment [5] it was > 100 µM (inactive). Further, the GI50 in [6], in experiment [7], in experiment [8], in [9], in experiment [10] and in experiment [11] was > 100 µM (inactive) throughout. For the same molecule, the GI50 in [12] was > 100 µM (inactive); in experiment [13], > 100 µM (inactive); in experiment [14], > 100 µM (inactive); in [15], > 100 µM (inactive); in experiment [17], 75.5 µM (inactive); in experiment [18], > 100 µM (inactive). In addition, in [19], the GI50 is 21.5 µM (inactive).
Consider `CO[C@@]12C[C@@H](C)C3=CCC(C)=C3CC1=C(C)C(=O)O2`, for which the GI50 in experiment [1], in [2], in experiment [16], in experiment [4], in [5] and in [6] was > 100 µM (inactive) in each case. Moreover, the GI50 in [7], in [8], in experiment [9], in experiment [10], in experiment [11] and in experiment [12] was > 100 µM (inactive) throughout. For the same molecule, the GI50 in [13] is > 100 µM (inactive); in [14], > 100 µM (inactive); in [15], > 100 µM (inactive); in experiment [17], 57.8 µM (inactive); in experiment [18] it was > 100 µM (inactive); in [19], > 100 µM (inactive).
With `NC(=O)Cc1nc2c(N)ncnc2n1C1OC(CO)C(O)C1O` (stereo not given), the GI50 in [2], in experiment [16], in experiment [3], in [4], in [5] and in [6] was > 100 µM (inactive) in each case. Besides, the GI50 in experiment [7], in experiment [8], in [9], in experiment [10], in experiment [11] and in [12] was > 100 µM (inactive) throughout. Moreover, the GI50 in experiment [13], in experiment [14], in experiment [15], in experiment [17], in experiment [18] and in [19] was > 100 µM (inactive) each time.
Regarding `CCCCCCCC/C=C/CCCCCCCC(=O)N(O)C1CC(n2cc(C)c(=O)[nH]c2=O)OC1CO` (stereo not given), the GI50 is 10.4 µM (inactive) in experiment [1]; 6.03 µM (inactive) in experiment [2]; 7.18 µM (inactive) in [16]; 10.6 µM (inactive) in [3]; 7.33 µM (inactive) in experiment [4]; 3.77 µM (inactive) in experiment [20]. Besides, the GI50 is 3.96 µM (inactive) in experiment [6]; 12.9 µM (inactive) in [7]; 11 µM (inactive) in experiment [8]; 5.38 µM (inactive) in experiment [9]; 2.64 µM (inactive) in [10]; 8.99 µM (inactive) in [11]. Besides, the GI50 in [12] is 13.2 µM (inactive); in [13], 10.8 µM (inactive); in [14] it was 8.28 µM (inactive); in experiment [15], 4.8 µM (inactive); in experiment [17], 9.68 µM (inactive); in experiment [18], 4.9 µM (inactive). Further, the GI50 in experiment [19] is 8.53 µM (inactive).
For `C1=CN2C[n+]3ccc4ccccc4c3N=C2c2ccccc21`, the GI50 in [1] was 16.1 µM (inactive); in experiment [2], 23.3 µM (inactive); in [16] it was 0.308 µM (active); in experiment [3] it was 2.47 µM (inactive); in [4], 0.652 µM (active); in experiment [5], 2.19 µM (inactive). Also, the GI50 in experiment [6] is 21 µM (inactive); in experiment [7], 2.11 µM (inactive); in [8] it was 4.02 µM (inactive); in [9] it was 3.74 µM (inactive); in experiment [10], 1.93 µM (inactive); in [11], 15 µM (inactive). The GI50 in experiment [12] is 2.92 µM (inactive); in experiment [13], 15.3 µM (inactive); in experiment [14] it was 2.69 µM (inactive); in experiment [15] it was 1.23 µM (inactive); in [17], 2.32 µM (inactive); in experiment [19], 2.82 µM (inactive).

Values taken from ChEMBL document CHEMBL1201862, “PubChem BioAssay data set” (2004).
